Where a name gives a salt, the structure may show the parent alone.
Target: T1, human IsK protein (UniProt P15382+P70057)
T1 construct: channel formed with endogenous oocyte KCNQ1; two-microelectrode voltage clamp
Experiment: cell-based
Conditions: human IsK expressed in Xenopus oocytes, -10 mV voltage jumps lasting 15 s, room temperature, pH 7.5; Hill equation

T1 sequence (P70057 whole entry): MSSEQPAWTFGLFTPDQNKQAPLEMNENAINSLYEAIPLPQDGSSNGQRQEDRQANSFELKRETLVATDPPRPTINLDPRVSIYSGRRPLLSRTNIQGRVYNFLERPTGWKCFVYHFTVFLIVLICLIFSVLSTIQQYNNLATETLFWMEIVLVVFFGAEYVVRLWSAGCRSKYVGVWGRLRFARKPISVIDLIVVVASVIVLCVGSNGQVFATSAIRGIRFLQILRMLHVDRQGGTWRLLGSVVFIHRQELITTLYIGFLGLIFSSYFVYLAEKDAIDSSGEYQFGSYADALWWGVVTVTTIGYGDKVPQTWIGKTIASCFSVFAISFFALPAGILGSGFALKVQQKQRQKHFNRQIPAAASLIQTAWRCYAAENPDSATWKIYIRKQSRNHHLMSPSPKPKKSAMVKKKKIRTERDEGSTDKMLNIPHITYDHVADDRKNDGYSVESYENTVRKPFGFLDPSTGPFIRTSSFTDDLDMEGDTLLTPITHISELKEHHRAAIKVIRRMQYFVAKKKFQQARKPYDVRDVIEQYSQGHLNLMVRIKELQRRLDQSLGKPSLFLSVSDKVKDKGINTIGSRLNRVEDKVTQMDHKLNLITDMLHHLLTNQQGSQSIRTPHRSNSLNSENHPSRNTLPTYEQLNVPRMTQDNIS

Compound | IC50 [µM]
CCS(=O)(=O)N(CC(=O)Nc1nc2ccccc2n1C)C1CC(C)(C)Oc2ccc(F)cc21 (stereo not shown) [Example 27, 2-[Ethanesulfonyl-(6-fluoro-2,2-dimethylchroman-4-yl)amino]-N-(1-methyl-1H-benzoimidazol-2-yl)acetamide] | 2.1
CC1(C)Oc2ccc(Cl)cc2[C@@H](N(CC(=O)NCCc2ccccc2)S(C)(=O)=O)[C@@H]1O (relative stereo) [Example 58, 2-[(6-Chloro-3-hydroxy-2,2-dimethylchroman-4-yl)methanesulfonylamino]-N-phenethylacetamide] | 0.5
Cc1ccc2c(c1)C(N(CCCCC(=O)OCCN(C)Cc1ccccc1)S(C)(=O)=O)CC(C)(C)O2 (stereo not shown) [Example 10, 2-(Benzylmethylamino)ethyl 5-[methanesulfonyl-(2,2,6-trimethylchroman-4-yl)amino]pentanoate] | 0.79
CC1(C)CC(N(CCCCOCC(=O)O)S(C)(=O)=O)c2cc(OCc3ccccc3)ccc2O1 (stereo not shown) [Example 34, {4-[(6-Benzyloxy-2,2-dimethylchroman-4-yl)methanesulfonylamino]butoxy}acetic acid] | ~0.7
CCCCOc1ccc2c(c1)C(N(CCOCCOC)S(C)(=O)=O)CC(C)(C)O2 (stereo not shown) [Example 42, N-(6-Butoxy-2,2-dimethylchroman-4-yl)-N-[2-(2-methoxyethoxy)ethyl]methanesulfonamide] | 0.34
CCOC(=O)CN(C)C(=O)CCCN(C1CC(C)(C)Oc2ccc(OCc3ccccc3)cc21)S(C)(=O)=O (stereo not shown) [Example 31, Ethyl ({4-[(6-benzyloxy-2,2-dimethylchroman-4-yl)methanesulfonylamino]butyryl}methylamino)acetate] | 0.28
CCS(=O)(=O)N(CC(=O)NCCN(C)Cc1ccccc1)C1CC(C)(C)Oc2ccc(F)cc21 (stereo not shown) [Example 62, N-[2-(Benzyl-methyl-amino)-ethyl]-2-[ethanesulfonyl-(6-fluoro-2,2-dimethyl-chroman-4-yl)-amino]-acetamide] | < 1
CCCCOc1ccc2c(c1)C(N(CCOCC(=O)O)S(C)(=O)=O)CC(C)(C)O2 (stereo not shown) [Example 43, {2-[(6-Butoxy-2,2-dimethylchroman-4-yl)methanesulfonylamino]ethoxy}acetic acid] | 7.8
CCCCNC(=O)CCCN(C1CC(C)(C)Oc2ccc(OCc3ccccc3)cc21)S(C)(=O)=O (stereo not shown) [Example 28, 4-[(6-Benzyloxy-2,2-dimethylchroman-4-yl)methanesulfonylamino]-N-butylbutyramide] | 0.47
CCCCOc1ccc2c(c1)C(N(CCCOCCO)S(C)(=O)=O)CC(C)(C)O2 (stereo not shown) [Example 45, N-(6-Butoxy-2,2-dimethylchroman-4-yl)-N-[3-(2-hydroxyethoxy)propyl]methanesulfonamide] | 0.45
CCS(=O)(=O)N(CC(=O)Nc1cccnc1)C1CC(C)(C)Oc2ccc(F)cc21 (stereo not shown) [Example 23, 2-[Ethanesulfonyl-(6-fluoro-2,2-dimethylchroman-4-yl)-amino]N-pyridin-3-ylacetamide] | 0.55
CN(CCc1ccccn1)C(=O)CN(C1CC(C)(C)Oc2ccc(OCc3ccccc3)cc21)S(C)(=O)=O (stereo not shown) [Example 40, 2-[(6-Benzyloxy-2,2-dimethylchroman-4-yl)methanesulfonylamino]-N-methyl-N-(2-pyridin-2-yl-ethyl)acetamide hydrochloride] | 0.35
CN(CCc1ccccc1)C(=O)CN(C1CC(C)(C)Oc2ccc(OCc3ccccc3)cc21)S(C)(=O)=O (stereo not shown) [Example 39, 2-[(6-Benzyloxy-2,2-dimethylchroman-4-yl)methanesulfonylamino]-N-methyl-N-phenethylacetamide] | 0.31
CC1(C)CC(N(CC(=O)NCCc2ccccn2)S(C)(=O)=O)c2cc(OCc3ccccc3)ccc2O1 (stereo not shown) [Example 17, 2-[(6-Benzyloxy-2,2-dimethylchroman-4-yl)methanesulfonylamino]-N-(2-pyridin-2-yl-ethyl)acetamide] | < 1
CCCCOc1ccc2c(c1)C(N(CCCOC(=O)NCCN1CCOCC1)S(C)(=O)=O)CC(C)(C)O2 (stereo not shown) [Example 47, 3-[(6-Butoxy-2,2-dimethylchroman-4-yl)methanesulfonylamino]propyl (^2-morpholin-4-yl-ethyl)carbamate] | 0.75
CCS(=O)(=O)N(CC(=O)Nc1ccccn1)C1CC(C)(C)Oc2ccc(F)cc21 (stereo not shown) [Example 14, 2-[(6-Fluoro-2,2-dimethylchroman-4-yl)ethanesulfonylamino]-N-pyridin-2-ylacetamide] | 0.18
CCS(=O)(=O)N(CC(=O)NCCc1ccccc1)C1CC(C)(C)Oc2ccc(F)cc21 (stereo not shown) [Example 21, 2-[Ethanesulfonyl-(6-fluoro-2,2-dimethylchroman-4-yl)amino]-N-phenethylacetamide] | 0.046
CCS(=O)(=O)N(CC(=O)Nc1ncccn1)C1CC(C)(C)Oc2ccc(F)cc21 (stereo not shown) [Example 24, 2-[Ethanesulfonyl-(6-fluoro-2,2-dimethylchroman-4-yl)amino]-N-pyrimidin-2-ylacetamide] | 1
COCCOCCCCN(C1CC(C)(C)Oc2ccc(OCc3ccccc3)cc21)S(C)(=O)=O (stereo not shown) [Example 29, N-(6-Benzyloxy-2,2-dimethylchroman-4-yl)-N-[4-(2-methoxyethoxy)butyl]methanesulfonamide] | < 1
CCS(=O)(=O)N(CC(=O)Nc1nc[nH]n1)C1CC(C)(C)Oc2ccc(F)cc21 (stereo not shown) [Example 54, 2-[Ethanesulfonyl-(6-fluoro-2,2-dimethylchroman-4-yl)amino]-N-(1H-[1,2,4]triazol-3-yl)acetamide] | 0.83
CCS(=O)(=O)N(CC(=O)Nc1ccncc1)C1CC(C)(C)Oc2ccc(F)cc21 (stereo not shown) [Example 22, 2-[Ethanesulfonyl-(6-fluoro-2,2-dimethylchroman-4-yl)amino]-N-pyridin-4-ylacetamide] | 0.67
CCS(=O)(=O)N(CC(=O)OCCN(C)Cc1ccccc1)C1CC(C)(C)Oc2ccc(F)cc21 (stereo not shown) [Example 49, 2-(Benzylmethylamino)ethyl [ethanesulfonyl-(6-fluoro-2,2-dimethylchroman-4-yl)amino]acetate] | 0.083
CCOCCOCCOC(=O)CN(C1CC(CC)(CC)Oc2ccc(C)cc21)S(=O)(=O)CC (stereo not shown) [Example 4, 2-(2-Ethoxyethoxy)ethyl [(2,2-diethyl-6-methylchroman-4-yl)-ethylsulfonylamino]acetate] | 1
CCCCOc1ccc2c(c1)C(N(CC(=O)NC(=N)N)S(C)(=O)=O)CC(C)(C)O2 (stereo not shown) [Example 56, N-(6-Butoxy-2,2-dimethylchroman-4-yl)-N-(2-guanidino-2-oxoethyl)methanesulfonamide] | 3.4
CCS(=O)(=O)N(CC(=O)NCCc1ccccn1)C1CC(C)(C)Oc2ccc(F)cc21 (stereo not shown) [Example 9, 2-[Ethylsulfonyl-(6-fluoro-2,2-dimethylchroman-4-yl)amino]-N-(2-pyridin-2-ylethyl)acetamide] | 1.6
CCOC(=O)CN(C)C(=O)CN(C1CC(C)(C)Oc2ccc(OCc3ccccc3)cc21)S(C)(=O)=O (stereo not shown) [Example 32, Ethyl ({2-[(6-benzyloxy-2,2-dimethylchroman-4-yl)methanesulfonylamino]acetyl}methylamino)acetate] | 0.25
CCS(=O)(=O)N(CC(=O)Nc1nc2ccccc2[nH]1)C1CC(C)(C)Oc2ccc(F)cc21 (stereo not shown) [Example 61, N-(1H-Benzoimidazol-2-yl)-2-[ethanesulfonyl-(6-fluoro-2,2-dimethyl-chroman-4-yl)-amino]-acetamide] | < 1
CCS(=O)(=O)N(CC(=O)Nc1cnccn1)C1CC(C)(C)Oc2ccc(F)cc21 (stereo not shown) [Example 25, 2-[Ethanesulfonyl-(6-fluoro-2,2-dimethylchroman-4-yl)amino]-N-pyrazin-2-ylacetamide] | 0.45
COCCOCCN(C1CC(C)(C)Oc2ccc(OCc3ccccc3)cc21)S(C)(=O)=O (stereo not shown) [Example 38, N-(6-Benzyloxy-2,2-dimethylchroman-4-yl)-N-[2-(2-methoxyethoxy)ethyl]methanesulfonamide] | 1.42

Test system: K^+ (ATP) channel
Experiment: not given
Conditions: cromakalim (formula A) and analogous acylamino compounds; cited from earlier work

Compound | action on ATP-sensitive K^+ channels
CC1(C)Oc2ccc(C#N)cc2[C@@H](N2CCCC2=O)[C@@H]1O (relative stereo) [cromakalim] | act as openers of ATP-sensitive K^+ channels

Test system: IKr
Experiment: not given
Conditions: known class III antiarrhythmics; cited from earlier work

Compound | block of IKr
CC(C)NC[C@@H](O)c1ccc(NS(C)(=O)=O)cc1 [d-sotalol] | mainly or exclusively block IKr
